The molecules below were run against T1, M-phase inducer phosphatase 1 (Homo sapiens, UniProt P30304) (assay: Compound was evaluated for the inhibition of Cdc25A phosphatase by using fluorescein diphosphate as substrate).
T1 sequence (P30304 whole entry): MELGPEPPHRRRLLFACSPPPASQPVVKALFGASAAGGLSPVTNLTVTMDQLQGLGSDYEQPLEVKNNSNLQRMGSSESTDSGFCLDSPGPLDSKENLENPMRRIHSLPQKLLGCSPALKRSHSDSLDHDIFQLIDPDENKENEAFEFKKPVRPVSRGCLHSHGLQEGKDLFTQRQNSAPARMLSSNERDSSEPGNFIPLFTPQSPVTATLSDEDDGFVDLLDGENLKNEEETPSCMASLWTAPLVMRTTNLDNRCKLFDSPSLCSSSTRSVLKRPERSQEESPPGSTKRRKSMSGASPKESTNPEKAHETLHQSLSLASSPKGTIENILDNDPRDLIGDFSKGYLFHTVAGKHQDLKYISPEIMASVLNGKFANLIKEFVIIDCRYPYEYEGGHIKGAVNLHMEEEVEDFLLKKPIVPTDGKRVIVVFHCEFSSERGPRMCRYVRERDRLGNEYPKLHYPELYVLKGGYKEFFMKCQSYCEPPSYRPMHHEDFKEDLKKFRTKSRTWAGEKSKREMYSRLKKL

| IC50 | Compound |
| --- | --- |
| 24.2 µM | C/C(=C\C/C=C\C#N)[C@H]1CC[C@]2(C)[C@@H](C(C)CCCC(C)C)CC[C@H]2[C@@H]1CC(=O)O (stereo not given in full) |
| 9.7 µM | C=C(CC/C=C\C#N)[C@H]1CC[C@]2(C)[C@@H](C(C)CCCC(C)C)CC[C@H]2[C@@H]1CC(=O)O (stereo not given in full) |

Further lines, the molecule ahead of its results:

| Compound | IC50 |
| --- | --- |
| C=C(CCCCC#N)[C@H]1CC[C@]2(C)[C@@H]([C@H](C)CCCC(C)C)CC[C@H]2[C@@H]1CC(=O)O | 2.2 µM |
| CC(C)CCCC(C)[C@H]1CC[C@H]2[C@@H]3CC(=O)O[C@@](C)(CC/C=C\C#N)[C@H]3CC[C@]12C (stereo not given in full) | 13.3 µM |
| CC(C)CCCC(C)[C@H]1CC[C@H]2[C@@H]3CC(=O)O[C@](C)(CC/C=C\C#N)[C@H]3CC[C@]12C (stereo not given in full) | > 50 µM |
